Measured values reported in PMC11475408, “All‐Inorganic Polyoxometalates Act as Superchaotropic Membrane Carriers” (Advanced Materials (Deerfield Beach, Fla.), 2023).

Columns and labels:
[1] = U-tube transport experiment through CHCl3; conditions: CHCl3 bulk phase; CF 100, POM 50, heptaArg 10 µM; 24 h; fluorescence
Source text: In the U‐tube experiments, the trans phase contained only buffer, and the cis phase is loaded with combinations of CF, carrier (POM), and cargo (heptaArg). Aliquots of the trans phase are taken and evaluated by fluorescence at different times. The trans phase is initially (t = 0) nonfluorescent, but the transport of CF from the cis phase through the chloroform barrier leads to fluorescence, signaling successful transport. […] This is consistent with translocation of a POM•heptaArg•CF complex through the organic phase, in support of the mechanism in Figure 1c.
The U‐tubes were house‐made, similar to those of Rebek^[ [82] ^] and Matile,^[ [54] ^] consisting in a small beaker with a central glass barrier, separating the two aqueous layers, cis ([…]) and trans (receiving phase), but allowing an interface chloroform layer below the cis and trans phases. 3 mL CHCl3 are placed into the U‐tube and 1 mL of the cis (combinations of carrier (POM), cargo (heptaArg) and CF in buffer) and trans (1 mL buffer) phases were added. The organic phase was stirred at 700 rpm at room temperature. Aliquots (25 µL) from the trans phase were taken at different times, 400 µL of buffer were added and measured by fluorescence.

[2] = CF transport assay in anionic vesicles; type: biochemical; conditions: heptaArg cargo; for heptaArg Ymax, anionic vesicles / EC50: CF assay, pH 7.4; for heptaArg Ymax, anionic vesicles: DMPE/DPPG/CHOL 1/2/1 (anionic), 13 µM phospholipids, 10 mM Tris, 140 mM NaCl; for EC50 / heptaArg E, anionic vesicles: DMPE/DPPG/CHOL (anionic); for heptaArg E, anionic vesicles: f = 20.6
Method: To better mimic biological membranes, which contain negatively charged components and cholesterol, equivalent transport experiments were performed in anionic liposomes^[ [19], [20] ^] with the prototypal POM carriers, [PVW11]^4‒ and [SiMoW11]^4‒ . […] This encouraged us to transfer the experiments to CHO‐K1 (Chinese hamster ovary) cells, after we had confirmed sufficient stability of the most promising POM carriers, [PVW11]^4‒ and [SiMoW11]^4‒ , in the cellular nutrient mixture (F‐12 Ham's medium, Figures S26–S28C, Supporting Information).
Anionic vesicles were prepared analogously except for the lipid composition, DMPE/DPPG/CHOL (4.4/10.4/2.6 mg, 1/2/1 molar ratio, DMPE: 1,2‐dimyristoyl‐sn‐glycero‐3‐phosphoethanolamine; DPPG: 1,2‐dipalmitoyl‐sn‐glycero‐3‐phospho‐(1´‐rac‐glycerol); CHOL: cholesterol) in a 1:1 mixture of CHCl3 and MeOH (1 mL), the hydration (60 min) and extrusion were performed at 55 °C, and the employed buffers were 100 mM CF, 10 mM Tris, pH 7.4 and 10 mM Tris, 140 mM NaCl, pH 7.4 for rehydration and elution, respectively.
Vesicles stock solutions (5–10 µL) were diluted with the corresponding buffer in a disposable plastic cuvette and gently stirred (total volume 2000 µL, final lipid concentration 13 µM). Carboxyfluorescein fluorescence was monitored at λ em = 517 nm (λ ex = 492 nm) as a function of time after addition of POMs at 60 s, analyte at 120 s and Triton X‐100 (24 µL 1.2% wt/vol) at 600 s to lyse the vesicles, for calibration. Fluorescence intensities were normalized to fractional emission as (1) It=It−I0/I∞−I0 where I 0 = I t before POM addition and […] after lysis. For Hill analysis, I t before lysis was defined as transport activity, Y, and plotted against POM concentration, c, and fitted to the Hill Equation (2), to afford the activity in absence of POM, Y 0, the maximal activity, Y max, the concentration needed to achieve 50% of maximal activity, EC 50, and the Hill coefficient, n (2) Y=Y0+Ymax−Y0/1+EC50/c^n […]
Figure S8. Heptaarginine transport through anionic vesicles[22-23][24] (DMPE/DPPG/CHOL, 1/2/1 molar ratio) facilitated by [PVW11]4‒ (a) and [SiMoW11]4‒ (c). Transport activity as function of [PVW11]4‒ (b) and [SiMoW11]4‒ (d) concentration, solid lines correspond to the resulting fit with the Hill equation.
Table S5. Membrane transport parameters of active POMs towards different analytes and different lipid composition. […]
a) 13 µM phospholipids. b) 10 µM cargo. c) Maximal activity; ±2% error (SD). d) Effective concentration to reach 50% activity of Ymax; 5 % error (SD). e) Activation efficiency E = Ymax (pEC50/f), were pEC50 is the negative logarithm of the EC50, and f a scaling factor set to 20.6 to allocate E between 0

Row | EC50 [2] [µM] | Substance | Carrier behaviour in U-tube (CF in trans phase) [1] | heptaArg Ymax, anionic vesicles [2] [%] | heptaArg E, anionic vesicles [2]
1 | 50 | K4[α‐P^VV^VW^VI 11O40]·4H2O [[PVW11]^4‒] | act as “real” carriers | 45 | 2.8
2 | 60 | K4[α‐Si^IVMo^VIW^VI 11O40]·24H2O [[SiMoW11]^4‒] | act as “real” carriers | 61 | 3.6
